In patent US20240327354A1, “GRAM-NEGATIVE BACTERIA EFFLUX PUMP INHIBITORS” (INSTITUT NATIONAL DE LA SANTÉ ET DE LA RECHERCHE MÉDICALE, priority 2021, published 2024):
Where a name gives a salt, the structure may show the parent alone. Read-outs that look alike come from different tables or passages of the source.

Assays:
[1] = test system: E. coli BW25113; assay: Assay 1: growth inhibition of E. coli by sub-inhibitory pyridomycin in combination with examples (resazurin reduction); type: cell-based, Escherichia coli; conditions: read-out: EC50 on E. coli with 8 μg/mL of pyridomycin, 8 μg/mL pyridomycin, 5 h, 37° C.
How it was run: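 E. coli BW25113 at OD600 0.0004–0.001 was grown in CAMHB at 37 °C. Viability was read by resazurin reduction fluorescence (Ex 530/Em 590 nm). EC50 is the concentration preventing 50% of resazurin turnover relative to untreated bacteria.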

[2] = test system: A. baumannii LMG 1025 (ATCC 17978); assay: Assay 3: growth inhibition of A. baumannii by sub-inhibitory novobiocin in combination with examples (resazurin reduction); type: cell-based, Acinetobacter baumannii
Description: Escherichia coli BW25113 (CGSC 7636) and its derivatives E. coli ΔtolC (JW5503-1, ΔtolC732::kan, CGSC 11430), E. coli ΔacrA (JW0452-3, ΔacrA748::kan, CGSC 11843) and E. coli ΔacrB (JW0451-2, ΔacrB747::kan, CGSC 8609) were obtained from E. coli Genetic Stock Center (CGSC, New Haven, Connecticut) and originated from the Keio Collection (Baba T et al, Mol Sys Biol, 2006). Klebsiella pneumoniae (LMG 2095/ATCC 13883) and K. pneumoniae (ATCC43816), Pseudomonas aeruginosa (PAO1), Acinetobacter baumannii (LMG 1025, ATCC 17978), were obtained from ATCC or BCCM/LMG Bacteria Collection. All bacteria were grown and tested in cation-adjusted Mueller-Hinton broth (CAMHB; BD Difco) at 37° C. For conservation, log phase bacteria were frozen (−80° C.) in CAMHB supplemented with 15% glycerol.
Measurement of growth Inhibition of A. baumannii strains by sub Inhibitory concentrations of novobiocin In combination with examples 1-137
For the evaluation of the dose dependent activity of examples 1-137, their ability to boost the antibacterial activity of sub-inhibitory concentrations novobiocin was determined. Briefly, A. baumannii LMG 1025 (ATCC 17978) were diluted from frozen or growing stocks to an OD600 of 0.001 in CAMHB. The bacterial suspension was then used as such (no—antibiotic control to evaluate EPI activity), or spiked with novobiocin at a final concentration of 5 μg/mL. Bacteria were then added to microplates carrying serial dilutions of the compounds examples 1-137, and incubated for (5 h or 24 h, 37° C.). Bacterial viability was evaluated using the resazurin reduction assay, and measured by fluorescence (POLARstar Omega, BMG Labtech: Ex: 530 nm Em: 590 nm). […] were defined as the compound concentration that prevented 90% of resazurin turnover compared to the non-treated bacteria.

[3] = 5 μg/mL novobiocin, 5 h or 24 h, 37° C., read-out: EC90 on A. baumannii with 5 μg/mL of novobiocin

Compound | EC50 [1] [µM] | EC90 [2, 3] [µM] | EC90 ([2]; read-out: EC90 on A. baumannii with 5 μg/mL of novobiocin, 5 μg/mL novobiocin, 5 h or 24 h, 37° C.) [µM]
NCCc1cccc(C#Cc2cnc(N3CCNCC3)c(Cl)c2)c1 [Example 91, 2-[3-[2-(5-chloro-6-piperazin-1-yl-3-pyridyl)ethynyl]phenyl]ethanamine; 2,2,2-trifluoroacetic acid] | < 5 | 5 to 100 | –
NCCCCNc1ccc2nc(N3CCNCC3)c(Cl)cc2c1 [Example 105, N′-(3-chloro-2-piperazin-1-yl-6-quinolyl)butane-1,4-diamine;dihydrochloride] | < 5 | 5 to 100 | –
NCc1ccc(-c2ccc3nc(N4CCNCC4)c(Cl)cc3c2)cc1 [Example 107, [4-(3-chloro-2-piperazin-1-yl-6-quinolyl)phenyl]methanamine;dihydrochloride] | < 5 | 5 to 100 | –
CN(C)Cc1cccc(-c2ccc3nc(N4CCNCC4)c(Cl)cc3c2)c1 [Example 110, 1-[3-(3-chloro-2-piperazin-1-yl-6-quinolyl)phenyl]-N,N-dimethyl-methanamine;dihydrochloride] | < 5 | 5 to 100 | –
NCc1ccccc1-c1ccc2nc(N3CCNCC3)c(Cl)cc2c1 [Example 111, [2-(3-chloro-2-piperazin-1-yl-6-quinolyl)phenyl]methanamine;dihydrochloride] | < 5 | 5 to 100 | –
C[C@H](N)c1cccc(-c2ccc3nc(N4CCNCC4)c(Cl)cc3c2)c1 [Example 112, (1S)-1-[3-(3-chloro-2-piperazin-1-yl-6-quinolyl)phenyl]ethanamine; dihydrochloride] | < 5 | 5 to 100 | –
NCCc1ccc(-c2ccc3nc(N4CCNCC4)c(Cl)cc3c2)cc1 [Example 116, 2-[4-(3-chloro-2-piperazin-1-yl-6-quinolyl)phenyl]ethanamine;dihydrochloride] | < 5 | 5 to 100 | –
Cc1c(CN)cccc1-c1ccc2nc(N3CCNCC3)c(Cl)cc2c1 [Example 117, [3-(3-chloro-2-piperazin-1-yl-6-quinolyl)-2-methyl-phenyl]methanamine;dihydrochloride] | < 5 | 5 to 100 | –
COc1c(CN)cccc1-c1ccc2nc(N3CCNCC3)c(Cl)cc2c1 [Example 118, [3-(3-chloro-2-piperazin-1-yl-6-quinolyl)-2-methoxy-phenyl]methanamine;dihydrochloride] | < 5 | 5 to 100 | –
Cc1ccc(CN)cc1-c1ccc2nc(N3CCNCC3)c(Cl)cc2c1 [Example 119, [3-(3-chloro-2-piperazin-1-yl-6-quinolyl)-4-methyl-phenyl]methanamine;dihydrochloride] | < 5 | 5 to 100 | –
COc1ccc(CN)cc1-c1ccc2nc(N3CCNCC3)c(Cl)cc2c1 [Example 120, [3-(3-chloro-2-piperazin-1-yl-6-quinolyl)-4-methoxy-phenyl]methanamine;dihydrochloride] | < 5 | 5 to 100 | –
NCc1ccc(Cl)c(-c2ccc3nc(N4CCNCC4)c(Cl)cc3c2)c1 [Example 121, [4-chloro-3-(3-chloro-2-piperazin-1-yl-6-quinolyl)phenyl]methanamine;dihydrochloride] | < 5 | 5 to 100 | –
Cc1cc(CN)cc(-c2ccc3nc(N4CCNCC4)c(Cl)cc3c2)c1 [Example 123, [3-(3-chloro-2-piperazin-1-yl-6-quinolyl)-5-methyl-phenyl]methanamine;dihydrochloride] | < 5 | 5 to 100 | –
COc1cc(CN)cc(-c2ccc3nc(N4CCNCC4)c(Cl)cc3c2)c1 [Example 124, [3-(3-chloro-2-piperazin-1-yl-6-quinolyl)-5-methoxy-phenyl]methanamine;dihydrochloride] | < 5 | 5 to 100 | –
NCc1cc(-c2ccc3nc(N4CCNCC4)c(Cl)cc3c2)cc(C(F)(F)F)c1 [Example 125, [3-(3-chloro-2-piperazin-1-yl-6-quinolyl)-5-(trifluoromethyl)phenyl]methanamine;dihydrochloride] | < 5 | – | 5 to 100
